From patent US12287326B2, “Fluorescent turn-on chemosensors for detection of aluminum ion and azide” (Morgan State University, priority 2019, dated 2025) come the findings set out here.

This test can be described thus: Fluorescence titration of sensors with Al^3+. The note with it: λex=510 nm, emission 585 nm. How it is done:
All reagents and solvents were purchased as analytical-grade and used without further purification unless otherwise stated. Stock solutions of metal ions were prepared from their nitrate and chloride salts and anion species from their tetrabutylammonium salts. Distilled deionized water was used throughout the experiments. ^1H-NMR and 13C-NMR spectra were recorded using an Avance 400 MHz spectrometer (BRUKER® Billerica, Karlsruhe, Germany) with tetramethylsilane (TMS) as internal standard and deuterated chloroform (CDCl3) as solvent. NMR spectra were analyzed using MestReNova software (version 10, Mestrela Research, Feliciano Barrera-Bajo, Spain). The IR spectrum was obtained using FT-IR spectrometer (Shimadzu, IRAffinity-1S, Columbia, MD, USA). […] All UV-vis spectroscopy experiments were recorded using a Cary UV/vis spectrophotometer 5000 (VARIAN®, Walnut Creek, CA, USA). Fluorescence emission spectra experiments were measured using a Cary 60 series spectrometer (AGILENT® Walnut Creek, CA, USA), with excitation and emission slit widths of 5 nm and excitation wavelength at 510 nm. […]
All spectroscopic measurements were carried out in aqueous CH3CN medium at room temperature. […] Each fluorescence titration was repeated at least thrice until consistent values were obtained. […] The association constant (K) was calculated from absorbance studies by the linear Benesi-Hildebrand equation. […]

In the case of `CCN(CC)c1ccc2c(c1)Oc1cc(N(CC)CC)ccc1C21c2ccccc2C(=O)N1/N=C/c1cc(Br)cc(OC)c1O` [L2], the “detection limit for Al^3+ ions” value is 47 µM.
The figure for `CCN(CC)c1ccc2c(c1)Oc1cc(N(CC)CC)ccc1C21c2ccccc2C(=O)N1/N=C/c1c(OC)ccc2ccccc12` [L1] is 32 µM.
